From patent US8293736B2, “Purine compounds selective for PI3K P110 delta, and methods of use” (F. Hoffmann la Roche AG, priority 2010, dated 2012)

Key:
p110 delta = biological target: T1, p110 delta (Homo sapiens, UniProt O00329); experiment: PI3K isoform inhibition assay (fluorescence polarization), p110 delta; format: biochemical; details: Ki apparent, Morrison equation; 25 μM ATP, 10 μM PIP2
T1 construct: purchased Upstate Group, Millipore; Dundee, UK
Experimental: (§1) Determination of the activity of PI3 kinase activity of Formula I compounds is possible by a number of direct and indirect detection methods.
(§2) PI3K enzymatic activity was assayed by measuring the amount of product phosphatidylinositol 3,4,5-phosphate (PIP3) formed from substrate 4,5 phosphatidylinositol 4,5-phosphate (PIP2) using a fluorescence polarization displacement assay. The decrease in fluorescence polarization of a fluorescent PIP3 probe is measured as it is displaced from a PIP3-binding protein GRP-1 detector by PI3K-catalyzed product. […] The kinase reactions were initiated by the addition of 40 ng/mL p110α/p85α, 300 ng/mL p110β/p85α, 40 ng/mL p110γ, or 40 ng/mL p110δ/p85α (Upstate Group, Millipore; Dundee, UK), and 10 μM PIP2 (Echelon Biosciences) to the wells. […] After 60 minutes of incubation at room temperature to allow equilibration of labeled and unlabeled PIP3 binding, the parallel and perpendicular components of the fluorescence emissions from each sample were measured at an excitation wavelength of 530 nm and an emission wavelength of 590 nm using an Envision fluorescent plate reader with a rhodamine filter (PerkinElmer Life and Analytical Sciences; Wellesley, Mass.). The assay is capable of detecting 0.1-2.0 μM PIP3 product. The Ki apparent values were obtained by fitting the dose-dependent inhibition data to the Morrison equation for tight-binding, competitive inhibitors. Reference: R. A. Copeland, Enzymes. “A Practical Introduction to Structure, Mechanism and Data Analysis”.
The Formula I compound was serially diluted in 100% DMSO. The kinase reaction was incubated for 1 h at room temperature, and the reaction was terminated by the addition of PBS. IC50 values were subsequently determined using sigmoidal dose-response curve fit (variable slope). […]

p110 alpha = biological target: T2, p110 alpha (Homo sapiens, UniProt P42336); experiment: PI3K isoform inhibition assay (fluorescence polarization), p110 alpha; format: biochemical; details: delta/alpha selectivity ratio
T2 construct: purchased Upstate Group, Millipore; Dundee, UK
T2 sequence (P42336 whole entry, species assumed, canonical isoform): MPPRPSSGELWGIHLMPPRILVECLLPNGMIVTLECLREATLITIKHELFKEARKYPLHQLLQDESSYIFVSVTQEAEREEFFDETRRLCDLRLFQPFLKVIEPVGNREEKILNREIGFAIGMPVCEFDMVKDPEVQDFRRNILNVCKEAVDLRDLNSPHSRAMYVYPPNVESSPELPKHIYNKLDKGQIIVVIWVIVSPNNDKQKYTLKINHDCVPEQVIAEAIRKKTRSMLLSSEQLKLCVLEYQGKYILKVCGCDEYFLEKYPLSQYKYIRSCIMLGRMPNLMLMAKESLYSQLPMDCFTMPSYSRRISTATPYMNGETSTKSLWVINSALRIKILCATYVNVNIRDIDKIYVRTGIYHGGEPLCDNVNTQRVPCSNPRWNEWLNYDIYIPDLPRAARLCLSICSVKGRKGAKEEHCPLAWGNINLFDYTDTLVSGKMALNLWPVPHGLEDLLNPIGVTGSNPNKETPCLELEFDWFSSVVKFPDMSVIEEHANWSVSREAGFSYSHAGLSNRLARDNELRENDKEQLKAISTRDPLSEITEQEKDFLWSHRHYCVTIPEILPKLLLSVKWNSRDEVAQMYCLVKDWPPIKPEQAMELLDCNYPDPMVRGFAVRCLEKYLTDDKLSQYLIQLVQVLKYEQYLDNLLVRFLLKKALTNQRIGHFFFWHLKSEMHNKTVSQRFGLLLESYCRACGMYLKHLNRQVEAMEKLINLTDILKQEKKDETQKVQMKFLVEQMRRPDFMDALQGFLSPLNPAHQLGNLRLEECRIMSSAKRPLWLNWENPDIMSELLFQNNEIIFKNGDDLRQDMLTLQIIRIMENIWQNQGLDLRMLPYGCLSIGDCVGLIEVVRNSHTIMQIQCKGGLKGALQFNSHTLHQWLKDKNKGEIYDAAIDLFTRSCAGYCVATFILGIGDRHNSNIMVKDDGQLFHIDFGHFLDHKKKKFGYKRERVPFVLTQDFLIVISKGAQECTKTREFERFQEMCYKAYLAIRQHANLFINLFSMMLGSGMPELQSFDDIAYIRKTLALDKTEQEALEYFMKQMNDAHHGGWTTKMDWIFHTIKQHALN
T2 sequence (P27986 whole entry partner, species assumed, canonical isoform): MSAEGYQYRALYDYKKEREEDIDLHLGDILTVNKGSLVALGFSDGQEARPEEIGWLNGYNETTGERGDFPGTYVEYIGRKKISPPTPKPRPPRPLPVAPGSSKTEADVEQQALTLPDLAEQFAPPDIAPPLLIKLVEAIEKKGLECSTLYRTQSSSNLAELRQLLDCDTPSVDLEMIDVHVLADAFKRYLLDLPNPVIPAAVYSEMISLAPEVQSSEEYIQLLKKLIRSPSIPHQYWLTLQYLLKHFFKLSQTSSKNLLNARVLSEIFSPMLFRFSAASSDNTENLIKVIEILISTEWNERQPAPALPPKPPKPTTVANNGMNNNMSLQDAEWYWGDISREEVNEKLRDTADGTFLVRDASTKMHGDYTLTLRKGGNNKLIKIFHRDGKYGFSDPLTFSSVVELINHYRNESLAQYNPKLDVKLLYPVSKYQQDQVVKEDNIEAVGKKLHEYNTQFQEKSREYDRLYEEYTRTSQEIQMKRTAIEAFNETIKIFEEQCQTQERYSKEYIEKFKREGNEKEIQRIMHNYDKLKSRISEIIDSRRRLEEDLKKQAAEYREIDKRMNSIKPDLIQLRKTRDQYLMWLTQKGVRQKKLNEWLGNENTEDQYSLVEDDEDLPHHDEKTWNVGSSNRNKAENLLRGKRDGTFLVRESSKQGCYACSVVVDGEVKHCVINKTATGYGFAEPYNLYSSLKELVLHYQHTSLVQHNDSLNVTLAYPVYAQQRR
Experimental: as §1, §2
The same protocol may be used to establish Ki values for p110α (alpha) PI3K binding.
The four Class I PI 3-kinases are cloned into baculovirus vectors as follows: […]

T1 sequence (O00329 whole entry, canonical isoform): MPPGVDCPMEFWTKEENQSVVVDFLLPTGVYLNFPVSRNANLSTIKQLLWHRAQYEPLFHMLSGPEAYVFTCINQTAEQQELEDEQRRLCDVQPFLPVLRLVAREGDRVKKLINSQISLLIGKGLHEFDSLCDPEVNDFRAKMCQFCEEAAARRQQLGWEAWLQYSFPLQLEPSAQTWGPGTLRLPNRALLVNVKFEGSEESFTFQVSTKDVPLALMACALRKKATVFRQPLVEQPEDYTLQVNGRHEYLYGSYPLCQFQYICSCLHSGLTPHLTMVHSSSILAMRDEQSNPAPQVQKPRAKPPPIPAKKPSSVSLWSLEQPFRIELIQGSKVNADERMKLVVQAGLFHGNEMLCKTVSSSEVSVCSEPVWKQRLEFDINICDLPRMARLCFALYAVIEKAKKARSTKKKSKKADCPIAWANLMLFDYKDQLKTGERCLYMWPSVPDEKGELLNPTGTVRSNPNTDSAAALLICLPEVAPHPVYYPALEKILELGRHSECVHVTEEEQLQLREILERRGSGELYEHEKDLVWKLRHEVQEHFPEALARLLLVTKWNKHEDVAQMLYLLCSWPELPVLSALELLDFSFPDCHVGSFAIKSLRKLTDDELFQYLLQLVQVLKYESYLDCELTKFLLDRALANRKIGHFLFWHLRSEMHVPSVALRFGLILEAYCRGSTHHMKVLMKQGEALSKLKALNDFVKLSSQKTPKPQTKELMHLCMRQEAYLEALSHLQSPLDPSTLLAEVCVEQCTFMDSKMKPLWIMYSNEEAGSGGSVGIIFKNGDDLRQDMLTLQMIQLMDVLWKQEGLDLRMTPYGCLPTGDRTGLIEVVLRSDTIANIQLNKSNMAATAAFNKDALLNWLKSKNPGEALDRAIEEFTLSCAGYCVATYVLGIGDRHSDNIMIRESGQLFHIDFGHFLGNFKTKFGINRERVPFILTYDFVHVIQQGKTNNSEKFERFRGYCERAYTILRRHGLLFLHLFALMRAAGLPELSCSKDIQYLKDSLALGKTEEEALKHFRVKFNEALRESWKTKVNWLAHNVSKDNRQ
T1 sequence (P27986 whole entry partner, canonical isoform): as the sequence (P27986 whole entry partner, species assumed, canonical isoform) above

| Compound | Ki (p110 delta) [nM] | Ki p110 alpha/ Ki p110 delta (p110 alpha) |
| --- | --- | --- |
| CCc1nc2ccccc2n1-c1nc(N2CCOCC2)c2nc(OC3CN(C4CC[S+]([O-])CC4)C3)n(C)c2n1 (single isomer, unassigned) [Compound 123, 4-(2-(2-ethyl-1H-benzo[d]imidazol-1-yl)-9-methyl-8-(1-(1-oxo-tetrahydro-2H-thiopyran-4-yl)azetidin-3-yloxy)-9H-purin-6-yl)morpholine] | 0.657 | 178 |
| CCc1nc2ccccc2n1-c1nc(N2CCOCC2)c2nc(OC3CCN(C4CCC(O)CC4)CC3)n(C)c2n1 (single isomer, unassigned) [Compound 130, 4-(4-(2-(2-ethyl-1H-benzo[d]imidazol-1-yl)-9-methyl-6-morpholino-9H-purin-8-yloxy)piperidin-1-yl)cyclohexanol] | 0.594 | 151 |
| CC(C)c1nc2ccccc2n1-c1nc(N2CCOCC2)c2nc(OC3CN(C4CCOCC4)C3)n(C)c2n1 [Compound 104, 4-(2-(2-isopropyl-1H-benzo[d]imidazol-1-yl)-9-methyl-8-(1-(tetrahydro-2H-pyran-4-yl)azetidin-3-yloxy)-9H-purin-6-yl)morpholine] | 0.651 | 202 |
| CCc1nc2ccccc2n1-c1nc(N2CCOCC2)c2nc(OC3CCN(C4CCS(=O)(=O)CC4)CC3)n(C)c2n1 [Compound 106, 4-(2-(2-ethyl-1H-benzo[d]imidazol-1-yl)-9-methyl-8-(1,1-dioxo-1-(tetrahydro-2H-thiopyran-4-yl)piperidin-4-yloxy)-9H-purin-6-yl)morpholine] | 0.441 | 73 |
| CCc1nc2ccccc2n1-c1nc(N2CCOCC2)c2nc(OC3CCN(C4COC4)CC3)n(C)c2n1 [Compound 109, 4-(2-(2-ethyl-1H-benzo[d]imidazol-1-yl)-9-methyl-8-(1-(oxetan-3-yl)piperidin-4-yloxy)-9H-purin-6-yl)morpholine] | 1.15 | 32.2 |
| CCc1nc2ccccc2n1-c1nc(N2CCOCC2)c2nc(OC3CCN(C(=O)C4CC4)CC3)n(C)c2n1 [Compound 110, cyclopropyl(4-(2-(2-ethyl-1H-benzo[d]imidazol-1-yl)-9-methyl-6-morpholino-9H-purin-8-yloxy)piperidin-1-yl)methanone] | 1.05 | 98 |
| CC(C)c1nc2ccccc2n1-c1nc(N2CCOCC2)c2nc(OC3CN(C4COC4)C3)n(C)c2n1 [Compound 111, 4-(2-(2-isopropyl-1H-benzo[d]imidazol-1-yl)-9-methyl-8-(1-(oxetan-3-yl)azetidin-3-yloxy)-9H-purin-6-yl)morpholine] | 1.64 | 102 |
| CCc1nc2ccccc2n1-c1nc(N2CCOCC2)c2nc(OC3CN(C4CCS(=O)(=O)CC4)C3)n(C)c2n1 [Compound 114, 4-(2-(2-ethyl-1H-benzo[d]imidazol-1-yl)-9-methyl-8-(1-(1,1-dioxo-tetrahydro-2H-thiopyran-4-yl)azetidin-3-yloxy)-9H-purin-6-yl)morpholine] | 1.26 | 163 |
| CCc1nc2ccccc2n1-c1nc(N2CCOCC2)c2nc(OC3CN(C4CCOCC4)C3)n(C)c2n1 [Compound 116, 4-(2-(2-ethyl-1H-benzo[d]imidazol-1-yl)-9-methyl-8-(1-(tetrahydro-2H-pyran-4-yl)azetidin-3-yloxy)-9H-purin-6-yl)morpholine] | 1.28 | 118 |
| CCc1nc2ccccc2n1-c1nc(N2CCOCC2)c2nc(OC3CCNCC3)n(C)c2n1 [Compound 124, 4-(2-(2-ethyl-1H-benzo[d]imidazol-1-yl)-9-methyl-8-(piperidin-4-yloxy)-9H-purin-6-yl)morpholine] | 0.91 | 188 |
| Cn1c(OC2CCN(C3CCOCC3)CC2)nc2c(N3CCOCC3)nc(-c3c(F)ccc4[nH]ccc34)nc21 [Compound 125, 4-(2-(5-fluoro-1H-indol-4-yl)-9-methyl-8-(1-(tetrahydro-2H-pyran-4-yl)piperidin-4-yloxy)-9H-purin-6-yl)morpholine] | 0.98 | 485 |
| CC(C)C(=O)N1CC(Oc2nc3c(N4CCOCC4)nc(-c4c(F)ccc5[nH]ccc45)nc3n2C)C1 [Compound 126, 1-(3-(2-(5-fluoro-1H-indol-4-yl)-9-methyl-6-morpholino-9H-purin-8-yloxy)azetidin-1-yl)-2-methylpropan-1-one] | 1 | 88 |
| Cc1nc2ccccc2n1-c1nc(N2CCOCC2)c2nc(OC3CCN(C4CCOCC4)CC3)n(C)c2n1 [Compound 127, 4-(9-methyl-2-(2-methyl-1H-benzo[d]imidazol-1-yl)-8-(1-(tetrahydro-2H-pyran-4-yl)piperidin-4-yloxy)-9H-purin-6-yl)morpholine] | 0.252 | 105 |

Next, values leading:

| Ki (p110 delta) [nM] | Ki p110 alpha/ Ki p110 delta (p110 alpha) | Compound |
| --- | --- | --- |
| 1.02 | 81 | CCc1nc2ccccc2n1-c1nc(N2CCOCC2)c2nc(OC3CCN(C(C)=O)CC3)n(C)c2n1 [Compound 102, 1-(4-(2-(2-ethyl-1H-benzo[d]imidazol-1-yl)-9-methyl-6-morpholino-9H-purin-8-yloxy)piperidin-1-yl)ethanone] |
| 0.494 | 177 | CCc1nc2ccccc2n1-c1nc(N2CCOCC2)c2nc(OC3CCN(C(=O)C(C)C)CC3)n(C)c2n1 [Compound 108, 1-(4-(2-(2-ethyl-1H-benzo[d]imidazol-1-yl)-9-methyl-6-morpholino-9H-purin-8-yloxy)piperidin-1-yl)-2-methylpropan-1-one] |
| 1.4 | 122 | CCc1nc2ccccc2n1-c1nc(N2CCOCC2)c2nc(OC3CCN(C(=O)C(C)(C)O)CC3)n(C)c2n1 [Compound 112, 1-(4-(2-(2-ethyl-1H-benzo[d]imidazol-1-yl)-9-methyl-6-morpholino-9H-purin-8-yloxy)piperidin-1-yl)-2-hydroxy-2-methylpropan-1-one] |
| 0.879 | 178 | CCc1nc2ccccc2n1-c1nc(N2CCOCC2)c2nc(OC3CCN(C(=O)C(C)(C)C)CC3)n(C)c2n1 [Compound 113, 1-(4-(2-(2-ethyl-1H-benzo[d]imidazol-1-yl)-9-methyl-6-morpholino-9H-purin-8-yloxy)piperidin-1-yl)-2,2-dimethylpropan-1-one] |
| 2.22 | 70 | CCc1nc2ccccc2n1-c1nc(N2CCOCC2)c2nc(OC3CN(C(=O)C(C)(C)O)C3)n(C)c2n1 [Compound 115, 1-(3-(2-(2-ethyl-1H-benzo[d]imidazol-1-yl)-9-methyl-6-morpholino-9H-purin-8-yloxy)azetidin-1-yl)-2-hydroxy-2-methylpropan-1-one] |
| 0.503 | 132 | CCc1nc2ccccc2n1-c1nc(N2CCOCC2)c2nc(OC3CN(C(=O)[C@@H](C)OC)C3)n(C)c2n1 [Compound 117, (R)-1-(3-(2-(2-ethyl-1H-benzo[d]imidazol-1-yl)-9-methyl-6-morpholino-9H-purin-8-yloxy)azetidin-1-yl)-2-methoxypropan-1-one] |
| 0.539 | 76 | CCc1nc2ccccc2n1-c1nc(N2CCOCC2)c2nc(OC3CN(S(=O)(=O)C4CC4)C3)n(C)c2n1 [Compound 118, 4-(8-(1-(cyclopropylsulfonyl)azetidin-3-yloxy)-2-(2-ethyl-1H-benzo[d]imidazol-1-yl)-9-methyl-9H-purin-6-yl)morpholine] |
|  | 115 | CCc1nc2ccccc2n1-c1nc(N2CCOCC2)c2nc(OC3CN(C(=O)C4CC4)C3)n(C)c2n1 [Compound 119, Cyclopropyl(3-(2-(2-ethyl-1H-benzo[d]imidazol-1-yl)-9-methyl-6-morpholino-9H-purin-8-yloxy)azetidin-1-yl)methanone] |
| 1.24 | 93 | CCc1nc2ccccc2n1-c1nc(N2CCOCC2)c2nc(OC3CN(C(=O)[C@H](C)OC)C3)n(C)c2n1 [Compound 120, (S)-1-(3-(2-(2-ethyl-1H-benzo[d]imidazol-1-yl)-9-methyl-6-morpholino-9H-purin-8-yloxy)azetidin-1-yl)-2-methoxypropan-1-one] |
| 1.29 | 51 | CCc1nc2ccccc2n1-c1nc(N2CCOCC2)c2nc(OC3CN(C(=O)C(C)(C)N)C3)n(C)c2n1 [Compound 121, 2-amino-1-(3-(2-(2-ethyl-1H-benzo[d]imidazol-1-yl)-9-methyl-6-morpholino-9H-purin-8-yloxy)azetidin-1-yl)-2-methylpropan-1-one] |
|  | 126 | CCc1nc2ccccc2n1-c1nc(N2CCOCC2)c2nc(OC3CN(C(=O)C(C)(C)CO)C3)n(C)c2n1 [Compound 151, 1-(3-(2-(2-ethyl-1H-benzo [d]imidazol-1-yl)-9-methyl-6-morpholino-9H-purin-8-yloxy)azetidin-1-yl)-3-hydroxy-2,2-dimethylpropan-1-one] |
